Values quoted from earlier work as cited in patent publication US20220313772A1, “Method of Treating a Child with Central Precocious Puberty using an Extended Release Composition” (Tolmar International Limited, priority 2019, published 2022).

Conditions: in vivo

## CCNC(=O)[C@@H]1CCCN1C(=O)[C@H](CCCNC(=N)N)NC(=O)[C@H](CC(C)C)NC(=O)[C@@H](CC(C)C)NC(=O)[C@H](Cc1ccc(O)cc1)NC(=O)[C@H](CO)NC(=O)[C@H](Cc1c[nH]c2ccccc12)NC(=O)[C@H](Cc1c[nH]cn1)NC(=O)[C@@H]1CCC(=O)N1 [Leuprolide acetate, leuprolide acetate]
  adverse effects at high dose: no adverse effects differing from those observed with a 1 mg/day dose
